# Assay results: patent publication US6706716B2, “Compounds specific for the human α1d adrenergic receptor and uses thereof” (Synaptic Pharmaceutical Corporation, priority 1998, dated 2004)
# Entries after “also recorded” stand apart in the source; their conditions may differ.
# Tests used:
# [1] = system: conscious, normotensive rats; assay: Mean arterial blood pressure in conscious, normotensive rats; format: in vivo, rat; conditions: 4.0 mg/kg i.v., 0-60 min
# Experimental: Rats were anesthetized and a PE50 chronic indwelling cannula was placed in the abdominal aorta for measurement of blood pressure. On the following day, 5 rats each were administered vehicle (1% DMSO) or Compound 7 (4.0 mg/kg in 1% DMSO, i.v.) and mean blood pressure measurements were recorded at 0, 5, 30, and 60 minutes thereafter.
# [2] = system: urethane-anesthetized rats; assay: Blood pressure in urethane-anesthetized, normotensive rats; format: in vivo, rat
# Experimental: Rats were anesthetized with urethane and PE50 cannulae were placed in the femoral artery and vein for blood pressure monitoring and drug administration, respectively. After stabilization, rats were administered 200 μl saline vehicle or increasing doses of BMY 7378 or Compound 7 at 10 minutes intervals until the reduction in blood pressure reached a plateau. The 5-HT1A-selective antagonist WAY 100635 (1 mg/kg) was then administered and blood pressure monitored for an additional 10 minutes.
structure (smiles),measurement,setting,value
"O=C1CC2(CCCC2)CC(=O)N1CCN1CCN(c2cc(F)c(F)cc2F)CC1 [Compound 7, 8-{2-[4-(2,4,5-Trifluorophenyl)piperazin-1-yl]ethyl}-8-azaspiro[4.5]decane-7,9-dione]",effect on mean blood pressure,[1],no reduction in blood pressure
same,reversal of the blood pressure effect by WAY 100635,[2]; 5-HT1A-selective antagonist WAY 100635 1 mg/kg given after plateau,not reversed
same,"effect on systolic, diastolic and mean blood pressure","[2]; urethane-anesthetized rats, increasing i.v. doses at 10 min intervals","reduces blood pressure in anesthetized rat, although to a lesser extent than BMY 7378; also recorded: only a minor reduction in blood pressure"
